Experimental data reported in PMC11079024, “Identification of a family of species-selective complex I inhibitors as potential anthelmintics” (Nature Communications, 2024).
Where two headings read alike, the source gives them in different places.

Tests used:
L1 wild-type C. elegans [1] = details: for Screen "Hit": 50 μM, hit = relative motility below 0.25 3 hours after removal of KCN
[2] = test system: ben-1 mutant (ECA882) C. elegans; experiment: microbe, parasite or virus in culture; details: Caenorhabditis elegans
Outline: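 Development and viability scored from single well images as total worm pixels divided by the matching DMSO control value, mean of ≥3 replicates. Worms added as synchronized L1s to HB101 suspension in liquid NGM with compound (1% DMSO v/v), grown 6 days at 20 °C with shaking.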

in vitro = details: human; for viability at 2 days, 3.13 µM / viability at 2 days, 6.25 µM / viability at 2 days, 12.5 µM / viability at 2 days, 25 µM / viability at 2 days, 50 µM / viability at 2 days, 100 µM: HEK293 cells (Flp-In-293), HEK293 viability
L1 wild-type C. elegans [3] = experiment: microbe, parasite or virus in culture; details: Caenorhabditis elegans, read-out: C. elegans KCN Survival Assay LC50, estimated from fitted dose-response curves; mean of at least two biological replicates
[4] = biological target: B. taurus (heart) complex I (Bos taurus, UniProt P03887+P17694+P42026); experiment: biochemical; type: biochemical; details: for IC50: B. taurus heart mitochondria, read-out: B. taurus Complex I IC50; for activity at 0.0001 µM / activity at 0.0005 µM / activity at 0.001 µM / activity at 0.0025 µM / activity at 0.005 µM / activity at 0.013 µM / activity at 0.025 µM / activity at 0.063 µM / activity at 0.125 µM / activity at 0.313 µM / activity at 0.625 µM / activity at 1.5 µM / activity at 3 µM / activity at 15 µM / activity at 37.5 µM / activity at 75 µM: read-out: B. taurus mitochondrial complex I activity; for Log IC50 B. taurus complex I: log10 of IC50 in µM, B. taurus mitochondria
Sequence of B. taurus (heart) complex I (P03887 whole entry): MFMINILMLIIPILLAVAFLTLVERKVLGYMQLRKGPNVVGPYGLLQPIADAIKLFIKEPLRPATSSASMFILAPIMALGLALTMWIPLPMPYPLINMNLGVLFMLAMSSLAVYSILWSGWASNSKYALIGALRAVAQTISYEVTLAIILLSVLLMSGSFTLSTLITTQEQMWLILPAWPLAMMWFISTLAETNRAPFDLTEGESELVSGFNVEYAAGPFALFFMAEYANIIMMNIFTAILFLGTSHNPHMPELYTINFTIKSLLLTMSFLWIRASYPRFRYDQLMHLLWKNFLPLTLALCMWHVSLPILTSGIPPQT
Sequence of B. taurus (heart) complex I (P17694 34-463): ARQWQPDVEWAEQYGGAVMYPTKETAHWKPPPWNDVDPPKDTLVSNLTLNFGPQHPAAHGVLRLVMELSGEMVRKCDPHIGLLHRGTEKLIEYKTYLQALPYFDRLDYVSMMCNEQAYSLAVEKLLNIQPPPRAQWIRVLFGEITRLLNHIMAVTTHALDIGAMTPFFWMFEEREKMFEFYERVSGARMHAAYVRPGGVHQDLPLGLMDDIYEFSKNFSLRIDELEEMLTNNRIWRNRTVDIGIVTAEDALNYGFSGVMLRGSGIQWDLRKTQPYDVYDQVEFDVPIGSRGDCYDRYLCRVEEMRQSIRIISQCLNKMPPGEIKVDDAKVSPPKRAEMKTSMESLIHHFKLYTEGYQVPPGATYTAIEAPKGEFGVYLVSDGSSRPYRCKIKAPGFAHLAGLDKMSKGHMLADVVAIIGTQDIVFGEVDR
Sequence of B. taurus (heart) complex I (P42026 38-216): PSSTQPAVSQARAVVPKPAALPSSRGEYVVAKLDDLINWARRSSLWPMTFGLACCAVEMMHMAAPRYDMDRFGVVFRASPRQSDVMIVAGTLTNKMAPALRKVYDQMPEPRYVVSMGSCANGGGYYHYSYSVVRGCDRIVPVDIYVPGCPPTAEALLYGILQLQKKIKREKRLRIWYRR
Outline: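 Complex I activity followed as DCIP reduction (600 nm, 30 s reads, 15 min) with 80 μM NADH and 60 μM decylubiquinone in 25 mM KPi pH 7.5 containing 2 μM antimycin A and 2 mM KCN. Freeze-thawed mouse or bovine heart mitochondria at 0.2 mg/mL; initial-rate percent of solvent control, single-point 100 μM or dose-response.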

[5] = Dose 0.2 µM, mean of at least three biological replicates
[6] = read-out: C. elegans (ben-1) Development & Viability Assay LC50
[7] = read-out: C. elegans ben-1(e1880) development/viability
[8] = read-out: C. elegans ben-1 log10 LC50 (converted)
[9] = estimated from fitted dose-response curves

## Nc1nc2ccccc2n1CCOc1ccc(Br)cc1 [Compound 5842535]
L1 wild-type C. elegans [1]
  Screen "Hit": Y (hits were identified as compounds that reduced relative motility below 0.25 (75% reduction))
L1 wild-type C. elegans [1]; [5]
  C. elegans KCN Survival: 1.013
L1 wild-type C. elegans [1]; Dose 0.39 µM
  C. elegans KCN Survival: 1.010
L1 wild-type C. elegans [1]; Dose 1.56 µM
  C. elegans KCN Survival: 1.035
L1 wild-type C. elegans [1]; Dose 3.13 µM
  C. elegans KCN Survival: 1.110
L1 wild-type C. elegans [1]; Dose 6.25 µM
  C. elegans KCN Survival: 1.056
L1 wild-type C. elegans [1]; Dose 12.5 µM
  C. elegans KCN Survival: 0.989
L1 wild-type C. elegans [1]; Dose 25 µM
  C. elegans KCN Survival: 0.572
L1 wild-type C. elegans [1]; Dose 50 µM
  C. elegans KCN Survival: 0.188
L1 wild-type C. elegans [1]; Dose 100 µM
  C. elegans KCN Survival: 0.200
[2]; [6]
  LC50: 41.1 µM
[2]; [7]
  viability at 1 µM: 99.9%
  viability at 2 µM: 100%
  viability at 3.9 µM: 97.9%
  viability at 15.6 µM: 100%
  viability at 31.3 µM: 85.9%
  viability at 62.5 µM: 5.7%
  viability at 125 µM: 6%
[2]; [8]
  LC50: 41 µM
In vitro; HEK293 Cell Viability Assay LC50, HEK293 cells, estimated from fitted dose-response curves
  CC50 at 2 days: 17.3 µM
In vitro
  viability at 2 days, 3.13 µM: 79.2%
  viability at 2 days, 6.25 µM: 82.9%
  viability at 2 days, 12.5 µM: 67.8%
  viability at 2 days, 25 µM: 11%
  viability at 2 days, 50 µM: 6.3%
  viability at 2 days, 100 µM: 6.3%
L1 wild-type C. elegans [3]
  LC50: 26.7 µM
[4]
  IC50: 12.7 µM
  activity at 0.0001 µM: 89.6%
  activity at 0.0005 µM: 91.9%
  activity at 0.001 µM: 90.7%
  activity at 0.0025 µM: 94.2%
  activity at 0.005 µM: 96.1%
  activity at 0.013 µM: 92.4%
  activity at 0.025 µM: 87.8%
  activity at 0.063 µM: 92.4%
  activity at 0.125 µM: 92%
  activity at 0.313 µM: 85.5%
  activity at 0.625 µM: 84.7%
  activity at 1.5 µM: 82.8%
  activity at 3 µM: 67.2%
  activity at 15 µM: 33.6%
  activity at 37.5 µM: 3.2%
  activity at 75 µM: 1.7%
  Log IC50 B. taurus complex I: 1.10 µM

## Cc1ccc(C(C)C)c(OCC(O)Cn2cnc3ccccc32)c1 (stereo not shown) [Compound 6093301]
L1 wild-type C. elegans [1]
  Screen "Hit": Y (hits were identified as compounds that reduced relative motility below 0.25 (75% reduction))
L1 wild-type C. elegans [1]; [5]
  C. elegans KCN Survival: 1.001
L1 wild-type C. elegans [1]; Dose 0.39 µM
  C. elegans KCN Survival: 1.016
L1 wild-type C. elegans [1]; Dose 1.56 µM
  C. elegans KCN Survival: 1.025
L1 wild-type C. elegans [1]; Dose 3.13 µM
  C. elegans KCN Survival: 0.981
L1 wild-type C. elegans [1]; Dose 6.25 µM
  C. elegans KCN Survival: 0.940
L1 wild-type C. elegans [1]; Dose 12.5 µM
  C. elegans KCN Survival: 0.855
L1 wild-type C. elegans [1]; Dose 25 µM
  C. elegans KCN Survival: 0.337
L1 wild-type C. elegans [1]; Dose 50 µM
  C. elegans KCN Survival: 0.161
L1 wild-type C. elegans [1]; Dose 100 µM
  C. elegans KCN Survival: 0.196
[2]; [6]
  LC50: 366 µM
[2]; [7]
  viability at 1 µM: 94.1%
  viability at 2 µM: 98.7%
  viability at 3.9 µM: 95.9%
  viability at 15.6 µM: 96.4%
  viability at 31.3 µM: 97.2%
  viability at 62.5 µM: 83.6%
  viability at 125 µM: 88.1%
  viability at 250 µM: 88.4%
  viability at 500 µM: 12.5%
  viability at 1000 µM: 4.7%
[2]; [8]
  LC50: 366 µM
In vitro
  CC50 at 2 days: 21.8 µM
  viability at 2 days, 3.13 µM: 90.1%
  viability at 2 days, 6.25 µM: 92.9%
  viability at 2 days, 12.5 µM: 85.6%
  viability at 2 days, 25 µM: 32.4%
  viability at 2 days, 50 µM: 7.3%
  viability at 2 days, 100 µM: 7.2%
L1 wild-type C. elegans [3]
  LC50: 19.8 µM
[4]; [9]
  IC50: 2.07 µM
[4]
  activity at 0.0001 µM: 94.9%
  activity at 0.0005 µM: 95.3%
  activity at 0.001 µM: 95.9%
  activity at 0.0025 µM: 100%
  activity at 0.005 µM: 99.5%
  activity at 0.013 µM: 100%
  activity at 0.025 µM: 96.1%
  activity at 0.063 µM: 94%
  activity at 0.125 µM: 90%
  activity at 0.313 µM: 81.5%
  activity at 0.625 µM: 75.8%
  activity at 1.5 µM: 60.4%
  activity at 3 µM: 45.2%
  activity at 15 µM: 18%
  activity at 37.5 µM: 13.4%
  activity at 75 µM: 11.2%
  Log IC50 B. taurus complex I: 0.32 µM

## Cc1cccc(OCCn2c(C)nc3ccccc32)c1 [Compound 6285199]
L1 wild-type C. elegans [1]
  Screen "Hit": Y (hits were identified as compounds that reduced relative motility below 0.25 (75% reduction))
L1 wild-type C. elegans [1]; [5]
  C. elegans KCN Survival: 1.002
L1 wild-type C. elegans [1]; Dose 0.39 µM
  C. elegans KCN Survival: 1.011
L1 wild-type C. elegans [1]; Dose 1.56 µM
  C. elegans KCN Survival: 0.994
L1 wild-type C. elegans [1]; Dose 3.13 µM
  C. elegans KCN Survival: 1.093
L1 wild-type C. elegans [1]; Dose 6.25 µM
  C. elegans KCN Survival: 0.980
L1 wild-type C. elegans [1]; Dose 12.5 µM
  C. elegans KCN Survival: 0.810
L1 wild-type C. elegans [1]; Dose 25 µM
  C. elegans KCN Survival: 0.165
L1 wild-type C. elegans [1]; Dose 50 µM
  C. elegans KCN Survival: 0.143
L1 wild-type C. elegans [1]; Dose 100 µM
  C. elegans KCN Survival: 0.167
[2]; [6]
  LC50: 205 µM
[2]; [7]
  viability at 1 µM: 99.9%
  viability at 2 µM: 91.6%
  viability at 3.9 µM: 97.6%
  viability at 15.6 µM: 95.5%
  viability at 31.3 µM: 93.8%
  viability at 62.5 µM: 97.6%
  viability at 125 µM: 100%
  viability at 250 µM: 64.8%
[2]; [8]
  LC50: 205 µM
In vitro
  CC50 at 2 days: 97.7 µM
  viability at 2 days, 3.13 µM: 100%
  viability at 2 days, 6.25 µM: 100%
  viability at 2 days, 12.5 µM: 100%
  viability at 2 days, 25 µM: 100%
  viability at 2 days, 50 µM: 98.3%
  viability at 2 days, 100 µM: 46.5%
L1 wild-type C. elegans [3]
  LC50: 14.7 µM
[4]; [9]
  IC50: 4.97 µM
[4]
  activity at 0.0001 µM: 98.3%
  activity at 0.0005 µM: 97.3%
  activity at 0.001 µM: 100%
  activity at 0.0025 µM: 95.3%
  activity at 0.005 µM: 95.1%
  activity at 0.013 µM: 97.1%
  activity at 0.025 µM: 95.3%
  activity at 0.063 µM: 88.5%
  activity at 0.125 µM: 87.7%
  activity at 0.313 µM: 83.8%
  activity at 0.625 µM: 79%
  activity at 1.5 µM: 67.9%
  activity at 3 µM: 54%
  activity at 15 µM: 18.4%
  activity at 37.5 µM: 5.61%
  activity at 75 µM: 1.08%
  Log IC50 B. taurus complex I: 0.70 µM
